These are literature values, as cited in US20050170064A1, “Plant sterol-containing food, and method for preparing the same” (Eugene Science Inc., priority 2002, published 2005).

The data set concerns LDL-C level. As to conditions: applied form in an oil phase (margarine).

In the case of sitostanol fatty acid ester, the “Reduction of the LDL-C level” value is no more than 16%.
